Reference: ChEMBL document CHEMBL1138228, “N,N'-Bisbenzylidenebenzene-1,4-diamines and N,N'-Bisbenzylidenenaphthalene-1,4-diamines as Sirtuin Type 2 (SIRT2) Inhibitors” (J Med Chem, 2006)

These compounds were tested against T1, NAD-dependent protein deacetylase sirtuin-2 (Homo sapiens, UniProt Q8IXJ6) (assay: Inhibition of SIRT2).
T1 sequence (Q8IXJ6 whole entry): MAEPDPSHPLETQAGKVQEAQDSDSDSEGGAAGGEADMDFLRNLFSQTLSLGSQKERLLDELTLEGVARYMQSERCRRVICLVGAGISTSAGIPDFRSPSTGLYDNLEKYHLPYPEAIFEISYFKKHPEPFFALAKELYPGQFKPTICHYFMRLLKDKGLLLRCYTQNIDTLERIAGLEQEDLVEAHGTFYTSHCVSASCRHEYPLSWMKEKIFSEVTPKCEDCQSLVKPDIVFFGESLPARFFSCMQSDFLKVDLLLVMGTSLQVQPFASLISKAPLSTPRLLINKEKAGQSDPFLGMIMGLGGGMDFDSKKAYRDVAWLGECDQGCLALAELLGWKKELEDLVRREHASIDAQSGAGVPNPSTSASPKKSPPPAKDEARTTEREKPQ

| IC50 [µM] | SMILES |
| --- | --- |
| 137 | Oc1ccc(/C=N/c2ccc(/N=C/c3ccc(O)cc3)c3ccccc23)cc1 |
| 196 | Oc1cccc(/C=N/c2ccc(/N=C/c3cccc(O)c3)c3ccccc23)c1 |
| 58.4 | Oc1ccccc1/C=N/c1ccc(/N=C/c2ccccc2O)cc1 |

These compounds were tested against T2, NAD-dependent protein deacetylase sirtuin-2 (Homo sapiens) (UniProt Q8IXJ6) (assay: Inhibition of SIRT2 at 200 uM).
T2 sequence (whole entry): T1 sequence (Q8IXJ6 whole entry)

| SMILES | inhibition [%] |
| --- | --- |
| c1ccc(CNc2ccc(NCc3ccccc3)cc2)cc1 | 21 |
| Oc1ccc(/C=N/c2ccc(/N=C/c3ccc(O)cc3)cc2)cc1 | 22 |
| C(=N\c1ccc(/N=C/c2ccccc2)c2ccccc12)/c1ccccc1 | 18 |
| COc1cccc(/C=N/c2ccc(/N=C/c3cccc(OC)c3)cc2)c1 | 20 |
| COc1ccc(/C=N/c2ccc(/N=C/c3ccc(OC)cc3)c3ccccc23)cc1 | 17 |
| Oc1cccc(/C=N/c2ccc(/N=C/c3cccc(O)c3)cc2)c1 | 12 |
| COc1ccccc1/C=N/c1ccc(/N=C/c2ccccc2OC)c2ccccc12 | 34 |
| COc1ccccc1/C=N/c1ccc(/N=C/c2ccccc2OC)cc1 | 13 |
| Oc1ccccc1/C=N/c1ccc(/N=C/c2ccccc2O)cc1 | 56 |
| C(=N\c1ccc(/N=C/c2ccccc2)cc1)/c1ccccc1 | 35 |

Second part, the compound after the results:

| inhibition [%] | SMILES |
| --- | --- |
| 20 | COc1cccc(/C=N/c2ccc(/N=C/c3cccc(OC)c3)c3ccccc23)c1 |
| 64 | Oc1ccc(/C=N/c2ccc(/N=C/c3ccc(O)cc3)c3ccccc23)cc1 |
| 8 | Oc1cccc(CNc2ccc(NCc3cccc(O)c3)cc2)c1 |
| 53 | Oc1cccc(/C=N/c2ccc(/N=C/c3cccc(O)c3)c3ccccc23)c1 |
| 13 | Oc1ccc(/C=N/c2ccc(/N=C/c3ccc(O)c(O)c3)cc2)cc1O |
| 38 | Oc1ccccc1/C=N/c1ccc(/N=C/c2ccccc2O)c2ccccc12 |
| 14 | Oc1ccc(CNc2ccc(NCc3ccc(O)cc3)cc2)cc1 |
| 27 | Oc1ccccc1CNc1ccc(NCc2ccccc2O)cc1 |
